# Source: US7790717B2, “Spiro-oxazolidinone compounds and their use as metabotropic glutamate receptor potentiators” (AstraZeneca AB, priority 2006, dated 2010)
# Biological target: T1, human mGluR2 (Homo sapiens, UniProt Q14416)
# T1 construct: expressed in transfected cells; host or cells: CHO cells, stably transfected; membrane preparation
# Assay: [35S]-GTPγS binding assay of mGluR2 receptor activation (allosteric activator activity)
# Format: biochemical
# Settings: membranes from CHO cells stably expressing human mGluR2; in presence of 1 μM glutamate
# Procedure: A [^35S]-GTPγS binding assay was used to functionally assay mGluR2 receptor activation. The allosteric activator activity of compounds at the human mGluR2 receptor were measured using a [^35S]-GTPγS binding assay with membranes prepared from CHO cells which stably express the human mGluR2. The assay is based upon the principle that agonists bind to G-protein coupled receptors to stimulate GDP-GTP exchange at the G-protein. Since [^35S]-GTPγS is a non-hydrolyzable GTP analog, it can be used to provide an index of GDP-GTP exchange and, thus, receptor activation. The GTPγS binding assay therefore provides a quantitative measure of receptor activation.
# Membranes were prepared from CHO cells stably transfected with human mGluR2. Membranes (30 μg protein) were incubated with test compound (3 nM to 300 μM) for 15 minutes at room temperature prior to the addition of 1 μM glutamate, and incubated for 30 min at 30° C. in 500 μL assay buffer (20 mM HEPES, 100 mM NaCl, 10 mM MgCl2), containing 30 μM GDP and 0.1 nM [^35S]-GTPγS (1250 Ci/mmol). Reactions were carried out in triplicate in 2 mL polypropylene 96-well plates. Reactions were terminated by vacuum filtration using a Packard 96-well harvester and Unifilter-96, GF/B filter microplates. The filter plates were washed 4×1.5 mL with ice-old wash buffer (10 mM sodium phosphate buffer, pH 7.4). The filter plates were dried and 35 μL of scintillation fluid (Microscint 20) was added to each well. The amount of radioactivity bound was determined by counting plates on a Packard TopCount. Data was analyzed using GraphPad Prism, and […] and Emax values (relative to the maximum glutamate effect) were calculated using non-linear regression.
# T1 sequence (Q14416 19-872): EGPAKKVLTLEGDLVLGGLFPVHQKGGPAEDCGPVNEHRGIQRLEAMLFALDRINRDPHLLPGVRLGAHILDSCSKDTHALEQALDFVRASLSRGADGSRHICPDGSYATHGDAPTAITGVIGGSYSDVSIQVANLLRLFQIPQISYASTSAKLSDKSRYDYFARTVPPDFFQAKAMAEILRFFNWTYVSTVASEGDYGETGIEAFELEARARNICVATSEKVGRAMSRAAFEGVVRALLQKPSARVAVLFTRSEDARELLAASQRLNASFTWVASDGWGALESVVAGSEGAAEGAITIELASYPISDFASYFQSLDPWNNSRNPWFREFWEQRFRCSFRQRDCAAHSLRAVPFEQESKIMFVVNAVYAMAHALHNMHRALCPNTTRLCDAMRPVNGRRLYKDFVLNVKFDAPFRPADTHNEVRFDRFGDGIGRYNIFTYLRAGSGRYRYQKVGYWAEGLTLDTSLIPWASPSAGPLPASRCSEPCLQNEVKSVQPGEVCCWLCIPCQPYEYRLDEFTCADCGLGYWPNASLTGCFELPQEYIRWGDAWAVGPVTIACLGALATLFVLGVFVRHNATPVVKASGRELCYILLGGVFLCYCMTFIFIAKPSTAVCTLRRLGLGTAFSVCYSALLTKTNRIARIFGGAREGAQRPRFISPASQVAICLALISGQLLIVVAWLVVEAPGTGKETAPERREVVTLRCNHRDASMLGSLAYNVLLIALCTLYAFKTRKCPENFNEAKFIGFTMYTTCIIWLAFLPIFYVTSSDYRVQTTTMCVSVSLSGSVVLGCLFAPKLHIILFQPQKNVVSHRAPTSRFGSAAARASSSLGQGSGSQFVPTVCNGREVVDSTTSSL
row,EC50,Compound
1,381 nM,"O=C1OC2(CCC3(CC2)OCCO3)CN1Cc1ccc(-c2ccc(F)cc2)cc1 [Example 1.49, 3-(4′-Fluoro-biphenyl-4-ylmethyl)-1,9,12-trioxa-3-aza-dispiro[4.2.4.2]tetradecan-2-one]"
2,1000 nM,"O=C1OC2(CCCCC2)CN1Cc1ccc(-c2ccc(NCCN3CCOCC3)nc2)cc1 [Example 1.30, 3-{4-[6-(2-Morpholin-4-yl-ethylamino)-pyridin-3-yl]-benzyl}-1-oxa-3-aza-spiro[4.5] decan-2-one]"
3,95 nM,"O=C1OC2(CCCCC2)CN1Cc1ccc(-c2ccccc2)cc1 [Example 3.2, 3-Biphenyl-4-ylmethyl-1-oxa-3-aza-spiro[4.5]decan-2-one]"

# The next lines start with the compound.
row,Compound,EC50
1,"O=C1OC2(CCCCC2)CN1Cc1ccc(-c2ccccc2CN2CCOCC2)cc1 [Example 1.1, 3-(2′-Morpholin-4-ylmethyl-biphenyl-4-ylmethyl)-1-oxa-3-aza-spiro[4.5]decan-2-one]",326 nM
2,"O=C1OC2(CCCCC2)CN1Cc1ccc(-c2ccc(Oc3ccccc3)cc2)cc1 [Example 1.6, 3-(4′-Phenoxy-biphenyl-4-ylmethyl)-1-oxa-3-aza-spiro[4.5]decan-2-one]",14 nM
